Data taken from US11166970B2, “Composition for preventing or treating neurological disorder comprising aucubin” (University-Industry Cooperation Group of Kyung Hee …, priority 2017, dated 2021).

How the values were obtained:
[1] = tested on: GABAergic neurons expressing a GAD65/67 marker; assay: Immunofluorescence staining: survival rate of GABAergic neurons expressing a GAD65/67 marker; format: cell-based, rat; details: aucubin 0.01-10 μM vs cells not treated with aucubin; survival rate relative to total number of cells; FIG. 1A
Description: (§1) In order to culture neurons, cells were obtained from the brain of an E16 rat embryo according to a method known in the art (Lim et al., 2007; Jo et al., 2007). Specifically, hippocampal eminence was isolated from the forebrain of the E16 rat embryo, and cells were mechanically isolated from the thus-obtained hippocampal eminence tissue by using Ca^2+/Mg^2+-free HBSS(Hanks' Balanced Salt Solution, Invitrogen). PAX6-GFP expressing neuronal precursor cells (NPCs) were isolated from the sub ventricular zone of a PAX6-GFP transgenic mouse.
(§2) The culture of cells was supplemented with 10 ng/mL or 20 ng/mL of bFGF (basic fibroblast growth factor, Invitrogen), and culturing was performed for 3 days in a serum-free N2 medium. After the confluency of cells reaches 70% to 80% by culturing for 3 to 4 days, the cells were subjected to passaging, and then divided and seeded according to an experimental use. Subsequently, the cells were cultured for 7 days in a N2 medium where FGF is removed, allowing neurons to be sufficiently differentiated. The cells were treated with aucubin (Sigma) at varying concentrations (0 μM, 0.01 μM, 0.1 μM, 1 μM, or 10 μM) in a bFGF-free N2 medium. […]
(§3) Thereafter, the number of the stained cells was counted and the survival rates thereof were shown in a graph. […]

[2] = tested on: glutamatergic neurons expressing a vGluT1 marker; assay: Immunofluorescence staining: survival rate of glutamatergic neurons expressing a vGluT1 marker; format: cell-based, rat; details: aucubin 0.01-10 μM vs cells not treated with aucubin; increase remarkably lower than for GABAergic neurons; FIG. 1B
Description: as §1, §2, §3

[3] = tested on: GABAergic neurons expressing a GAD65/67 marker; assay: Immunofluorescence staining: survival rate of GABAergic neurons in ChAT-GFP transgenic mouse culture; format: cell-based; details: ChAT-GFP transgenic mouse cells; aucubin 0.01-10 μM vs untreated; relative to total DAPI-stained cells; FIG. 2b
Method: as §2
(§4) For GFP-fluorescence staining, an anti-GFP (rabbit anti-GFP antibody, 1:500, Merck, Germany) primary antibody was used. […]
(§5) Thereafter, the number of the stained cells was counted, and compared with the number of the cells expressing a GABAergic neuron-specific marker (GAD65/67), and the survival rates thereof were shown in a graph.
(§6) Specifically, the cells cultured by the method according to Experimental Example 1 were treated with aucubin at varying concentrations of 0 μM, 0.01 μM, 0.1 μM, 1 μM, and 10 μM, respectively. The number of GABAergic neurons expressing a GAD65/67 marker and the number of cholinergic neuron expressing a ChAT-GFP marker were shown in graphs as survival rates relative to the total number of cells which were fluorescence stained with DAPI.

[4] = tested on: cholinergic neurons expressing a ChAT-GFP marker; assay: Immunofluorescence staining: survival rate of cholinergic neurons expressing a ChAT-GFP marker; format: cell-based; details: ChAT-GFP transgenic mouse cells; aucubin 0.01-10 μM vs untreated; relative to total DAPI-stained cells; FIG. 2b
Method: as §2, §4, §5, §6

[5] = tested on: NeuN; assay: Immunoblot analysis: expression of NeuN (mature neuron-specific marker); format: cell-based, rat; details: relative to β-actin, aucubin 0.01-10 μM vs untreated, FIG. 3A, B
Description: as §1, with “mouse. […]” for “mouse.”
(§7) Specifically, cells (30,000 cells/cm^2), which were cultured in a 60 mm petri dish coated with 15 μg/mL of poly-L-ornithine (Sigma-Aldrich, USA) and 1 μg/mL of fibronectin (Sigma-Aldrich, USA), were used. […] The protein quantification was performed using a Bradford protein assay kit (Bio-Rad, Hercules, Calif., USA).
(§8) Subsequently, a mixture of 20 μg of the proteins and a loading buffer (Biosesang Co., Seoul, Korea) was boiled at 100° C. for 10 minutes to denature the proteins. […] Thereafter, signals were detected after culturing the proteins with a secondary antibody.
(§9) In order to verify the effect of aucubin on enhancing the survival rates of GABAergic and glutamatergic neurons, the cells were treated with aucubin, followed by quantifying the expression levels of each cell type marker by an immunoblot method. […]

[6] = tested on: GAD65/67; assay: Immunoblot analysis: expression of GAD65/67 (GABAergic neuron-specific marker); format: cell-based, rat; details: relative to β-actin, aucubin 0.01-10 μM vs untreated, FIG. 3A, C
Description: as §1, with “mouse. […]” for “mouse.”
as §7, §8, §9

[7] = tested on: vGluT1; assay: Immunoblot analysis: expression of vGluT1 (glutamatergic neuron-specific marker); format: cell-based, rat; details: relative to β-actin, aucubin 0.01-10 μM vs untreated, remarkably lower than GAD65/67, FIG. 3A, D
Description: as §1, with “mouse. […]” for “mouse.”
as §7, §8, §9

[8] = tested on: neuronal precursor cells expressing Pax6-GFP; assay: Immunofluorescence staining: number of neuronal precursor cells expressing Pax6-GFP; format: cell-based; details: Pax6-GFP transgenic mouse neuronal precursor cells; aucubin 0.01-10 μM vs untreated; FIG. 4A, B
Description: as §1, §2, §4

[9] = tested on: cells synthesizing GABA among the cells expressing Pax6-GFP; assay: Immunofluorescence staining: ratio of cells synthesizing GABA among cells expressing Pax6-GFP; format: cell-based; details: Pax6-GFP transgenic mouse neuronal precursor cells; aucubin 0.01-10 μM vs untreated; FIG. 4C
Description: as §1, §2, §4

OCC1=C[C@@H](O)[C@@H]2C=CO[C@@H](O[C@@H]3O[C@H](CO)[C@@H](O)[C@H](O)[C@H]3O)[C@H]12 [aucubin]
increase in survival rate of GABAergic neurons expressing a GAD67/65 marker [1]: up to 2 fold
survival rate of excitatory neurons expressing vGluT1 [2]: significantly increased
increase in survival rate of GABAergic neurons expressing a GAD65/67 marker [3]: ~2 fold
survival rate of cholinergic cells expressing a ChAT-GFP marker [4]: the increase rate thereof was not significant
expression of NeuN (mature neuron-specific marker) [5]: remarkably increased
increase in expression of GAD65/67 (GABAergic neuron-specific marker) [6]: up to 5 fold
expression of vGluT1 (glutamatergic neuron-specific marker) [7]: significantly increased
increase in number of cells which express Pax6-GFP [8]: about 2 fold
increase in ratio of cells synthesizing GABA among the cells expressing Pax6-GFP [9]: ≥ 1.5 fold
